Data on 15 compounds can be found in patent publication US20260241012A1, “1,8-NAPHTHYRIDIN-2-ONE HETEROBIFUNCTIONAL BCL6 DEGRADERS” (Treeline Biosciences, Inc., priority 2022, published 2026).

The experiment deals with T1, N-terminal HiBiT tagged BCL6 (Homo sapiens, UniProt P41182).
T1 construct: expressed in transfected cells; host or cells: HT1080 (ATCC CCL-121), stably transduced with lentivirus pLV-UBC-N-HiBiT-BCL6-PGK-puro
Description: HiBiT based degradation assay. The conditions noted are these: HT1080 cells expressing N-terminal HiBiT tagged BCL6, 5 hours of incubation; for Ymin (5 hr): BCL6 degradation normalized with DMSO control; for DC50: four-parameter logistic model, read-out: EC50 (5 hr). Format: cell-based. An excerpt: Human BCL6 protein coding open reading frame fused with N-terminal HiBiT coding sequence was synthesized from Integrated DNA Technologies (IDT). Next, the N-HiBiT-BCL6 sequence was cloned into pLV-UBC-PGK-Puro, a lentivirus plasmid purchased from Vectorbuilder, to generate pLV-UBC-N-HiBiT-BCL6-PGK-puro. Lentiviral particles were generated from Lenti-X™ 293T cells (Clontech) by co-transfection of pLV-UBC-N-HiBiT-BCL6-PGK-puro plasmids and lentiviral packaging plasmid mix (Cellecta). HT1080 [HT1080] (ATCC CCL-121) cells were infected with the lentivirus, and HT1080 cells stably integrated with the lentiviral vectors were established by incubation with 1 μg/mL puromycin (Thermofisher).
HT1080 cells expressing N-terminal HiBiT tagged BCL6 were dispensed into a 384-well plate pre-spotted with compounds at varying concentrations. Five thousand cells were seeded into each well in 40 μL of RPMI 1640 media plus 10% Fetal Bovine Serum (10082-147, Thermofisher). After 5 hours of incubation at 37° C. with 5% CO2, 30 μL of the NANO-GLOR HiBiT Lytic Detection System working solution (Promega) was added to each well and incubated at room temperature for 15 min. After incubation, luminescence was read on a PHERAstar FSX Plate Reader (BMG). BCL6 degradation at each indicated concentration was normalized with DMSO control. The BCL6 degradation curves were plotted using a four-parameter logistic model.
A general note: With HiBiT, luminescence reflects the tagged protein that the partner subunit can reach.

Consider `CNC(=O)COc1cc2cc(Nc3nc(N4CCN(CC5CCN(c6ccc7c(C8CCC(=O)NC8=O)nn(C)c7c6)CC5)[C@@H](C)C4)ncc3Cl)cnc2n(C(C)C)c1=O` (stereo partly drawn) [Compound 106a, 2-((6-((5-chloro-2-((3S)-4-((1-(3-(2,6-dioxopiperidin-3-yl)-1-methyl-1H-indazol-6-yl)piperidin-4-yl)methyl)-3-methylpiperazin-1-yl)pyrimidin-4-yl)amino)-1-isopropyl-2-oxo-1,2-dihydro-1,8-naphthyridin-3-yl)oxy)-N-methylacetamide], for which the “Ymin (5 hr)” value was “++ (50% ≤ Ymin < 70%)” and the DC50 is under 0.01 µM.

Take `CNC(=O)COc1cc2cc(Nc3nc(N4CCN(CC5CCN(c6ccc7c(C8CCC(=O)NC8=O)nn(C)c7c6)CC5)CC4)ncc3Cl)cnc2n(C)c1=O` (stereo not drawn) [Compound 107, 2-((6-((5-chloro-2-(4-((1-(3-(2,6-dioxopiperidin-3-yl)-1-methyl-1H-indazol-6-yl)piperidin-4-yl)methyl)piperazin-1-yl)pyrimidin-4-yl)amino)-1-methyl-2-oxo-1,2-dihydro-1,8-naphthyridin-3-yl)oxy)-N-methylacetamide]: the “Ymin (5 hr)” value was “+++ (30% ≤ Ymin < 50%)” and the DC50 was under 0.01 µM.

On to `CNC(=O)COc1cc2cc(Nc3nc(N4CCN(CC5CCN(c6cccc7c(N8CCC(=O)NC8=O)nn(C)c67)CC5)CC4)ncc3Cl)cnc2n(C(C)C)c1=O` [Compound 109, 2-((6-((5-chloro-2-(4-((1-(3-(2,4-dioxotetrahydropyrimidin-1 (2H)-yl)-1-methyl-1H-indazol-7-yl)piperidin-4-yl)methyl)piperazin-1-yl)pyrimidin-4-yl)amino)-1-isopropyl-2-oxo-1,2-dihydro-1,8-naphthyridin-3-yl)oxy)-N-methylacetamide], for which the “Ymin (5 hr)” value is listed as “+++ (30% ≤ Ymin < 50%)” and the DC50 lay within 0.01 to 0.1 µM.

Turning to `CNC(=O)COc1cc2cc(Nc3nc(N4CCCN(CC5CCN(c6cccc7c(C8CCC(=O)NC8=O)nn(C)c67)CC5)CC4)ncc3Cl)cnc2n(C)c1=O` (stereo not drawn) [Compound 110, 2-((6-((5-chloro-2-(4-((1-(3-(2,6-dioxopiperidin-3-yl)-1-methyl-1H-indazol-7-yl)piperidin-4-yl)methyl)-1,4-diazepan-1-yl)pyrimidin-4-yl)amino)-1-methyl-2-oxo-1,2-dihydro-1,8-naphthyridin-3-yl)oxy)-N-methylacetamide], the “Ymin (5 hr)” value is on record as “+++ (30% ≤ Ymin < 50%)” and the DC50 was 0.01 to 0.1 µM.

Turning to `CNC(=O)COc1cc2cc(Nc3nc(N4CCCN(CC5CCN(c6ccc7c(C8CCC(=O)NC8=O)nn(C)c7c6)CC5)CC4)ncc3Cl)cnc2n(C)c1=O` (stereo not drawn) [Compound 111, 2-((6-((5-chloro-2-(4-((1-(3-(2,6-dioxopiperidin-3-yl)-1-methyl-1H-indazol-6-yl)piperidin-4-yl)methyl)-1,4-diazepan-1-yl)pyrimidin-4-yl)amino)-1-methyl-2-oxo-1,2-dihydro-1,8-naphthyridin-3-yl)oxy)-N-methylacetamide], the “Ymin (5 hr)” value is “+++ (30% ≤ Ymin < 50%)” and the DC50 is under 0.01 µM.

For `CNC(=O)COc1cc2cc(Nc3nc(N4CCC5(CCN(CC6CCN(c7cccc8c(C9CCC(=O)NC9=O)nn(C)c78)CC6)CC5)CC4)ncc3Cl)cnc2n(C)c1=O` (stereo not drawn) [Compound 113, 2-((6-((5-chloro-2-(9-((1-(3-(2,6-dioxopiperidin-3-yl)-1-methyl-1H-indazol-7-yl)piperidin-4-yl)methyl)-3,9-diazaspiro[5.5]undecan-3-yl)pyrimidin-4-yl)amino)-1-methyl-2-oxo-1,2-dihydro-1,8-naphthyridin-3-yl)oxy)-N-methylacetamide], the “Ymin (5 hr)” value is “++++ (Ymin < 30%)” and the DC50 lay in the range of 0.01 to 0.1 µM.

On to `CNC(=O)COc1cc2cc(Nc3nc(N4CCN(CCC5CCN(c6ccc7c(C8CCC(=O)NC8=O)nn(C)c7c6)CC5)CC4)ncc3Cl)cnc2n(C)c1=O` (stereo not drawn) [Compound 114, 2-((6-((5-chloro-2-(4-(2-(1-(3-(2,6-dioxopiperidin-3-yl)-1-methyl-1H-indazol-6-yl)piperidin-4-yl)ethyl)piperazin-1-yl)pyrimidin-4-yl)amino)-1-methyl-2-oxo-1,2-dihydro-1,8-naphthyridin-3-yl)oxy)-N-methylacetamide], for which the “Ymin (5 hr)” value is listed as “+++ (30% ≤ Ymin < 50%)” and the DC50 was under 0.01 µM.

Turning to `CNC(=O)COc1cc2cc(Nc3nc(N4CCN(CCC5CCN(c6cccc7c(C8CCC(=O)NC8=O)nn(C)c67)CC5)CC4)ncc3Cl)cnc2n(C)c1=O` (stereo not drawn) [Compound 115, 2-((6-((5-chloro-2-(4-(2-(1-(3-(2,6-dioxopiperidin-3-yl)-1-methyl-1H-indazol-7-yl)piperidin-4-yl)ethyl)piperazin-1-yl)pyrimidin-4-yl)amino)-1-methyl-2-oxo-1,2-dihydro-1,8-naphthyridin-3-yl)oxy)-N-methylacetamide], the “Ymin (5 hr)” value is “+++ (30% ≤ Ymin < 50%)” and the DC50 was under 0.01 µM.

As to `CNC(=O)COc1cc2cc(Nc3nc(N4CC5COCC(C4)N5CC4CCN(c5cccc6c(C7CCC(=O)NC7=O)nn(C)c56)CC4)ncc3Cl)cnc2n(C)c1=O` (stereo not drawn) [Compound 117, 2-((6-((5-chloro-2-(9-((1-(3-(2,6-dioxopiperidin-3-yl)-1-methyl-1H-indazol-7-yl)piperidin-4-yl)methyl)-3-oxa-7,9-diazabicyclo[3.3.1]nonan-7-yl)pyrimidin-4-yl)amino)-1-methyl-2-oxo-1,2-dihydro-1,8-naphthyridin-3-yl)oxy)-N-methylacetamide], the “Ymin (5 hr)” value is “++++ (Ymin < 30%)” and the DC50 is under 0.01 µM.

`CNC(=O)COc1cc2cc(Nc3nc(N4CC5(CN(CC6CCN(c7ccc8c(C9CCC(=O)NC9=O)nn(C)c8c7)CC6)C5)C4)ncc3Cl)cnc2n(C)c1=O` (stereo not drawn) [Compound 118, 2-((6-((5-chloro-2-(6-((1-(3-(2,6-dioxopiperidin-3-yl)-1-methyl-1H-indazol-6-yl)piperidin-4-yl)methyl)-2,6-diazaspiro[3.3]heptan-2-yl)pyrimidin-4-yl)amino)-1-methyl-2-oxo-1,2-dihydro-1,8-naphthyridin-3-yl)oxy)-N-methylacetamide]: the “Ymin (5 hr)” value is listed as “++++ (Ymin < 30%)” and the DC50 was under 0.01 µM.

Consider `CNC(=O)COc1cc2cc(Nc3nc(N4CC5(CN(CC6CCN(c7cccc8c(C9CCC(=O)NC9=O)nn(C)c78)CC6)C5)C4)ncc3Cl)cnc2n(C)c1=O` (stereo not drawn) [Compound 119, 2-((6-((5-chloro-2-(6-((1-(3-(2,6-dioxopiperidin-3-yl)-1-methyl-1H-indazol-7-yl)piperidin-4-yl)methyl)-2,6-diazaspiro[3.3]heptan-2-yl)pyrimidin-4-yl)amino)-1-methyl-2-oxo-1,2-dihydro-1,8-naphthyridin-3-yl)oxy)-N-methylacetamide], for which the “Ymin (5 hr)” value is “+++ (30% ≤ Ymin < 50%)” and the DC50 is under 0.01 µM.

For the compound `CNC(=O)COc1cc2cc(Nc3nc(N4CCC5(CC4)CN(CC4CCN(c6cccc7c(C8CCC(=O)NC8=O)nn(C)c67)CC4)C5)ncc3Cl)cnc2n(C)c1=O` (stereo not drawn) [Compound 120, 2-((6-((5-chloro-2-(2-((1-(3-(2,6-dioxopiperidin-3-yl)-1-methyl-1H-indazol-7-yl)piperidin-4-yl)methyl)-2,7-diazaspiro[3.5]nonan-7-yl)pyrimidin-4-yl)amino)-1-methyl-2-oxo-1,2-dihydro-1,8-naphthyridin-3-yl)oxy)-N-methylacetamide], the “Ymin (5 hr)” value is “++++ (Ymin < 30%)” and the DC50 is under 0.01 µM.

Consider `CNC(=O)COc1cc2cc(Nc3nc(N4CCC5(CC4)CN(CC4CCN(c6ccc7c(C8CCC(=O)NC8=O)nn(C)c7c6)CC4)C5)ncc3Cl)cnc2n(C)c1=O` (stereo not drawn) [Compound 121, 2-((6-((5-chloro-2-(2-((1-(3-(2,6-dioxopiperidin-3-yl)-1-methyl-1H-indazol-6-yl)piperidin-4-yl)methyl)-2,7-diazaspiro[3.5]nonan-7-yl)pyrimidin-4-yl)amino)-1-methyl-2-oxo-1,2-dihydro-1,8-naphthyridin-3-yl)oxy)-N-methylacetamide], for which the “Ymin (5 hr)” value is listed as “+++ (30% ≤ Ymin < 50%)” and the DC50 is under 0.01 µM.

With `CNC(=O)COc1cc2cc(Nc3nc(N4CC[C@H](CNc5cccc6c(C7CCC(=O)NC7=O)nn(C)c56)C4)ncc3Cl)cnc2n(C)c1=O` (stereo partly drawn) [Compound 122a, 2-((6-((5-chloro-2-((3R)-3-(((3-(2,6-dioxopiperidin-3-yl)-1-methyl-1H-indazol-7-yl)amino)methyl)pyrrolidin-1-yl)pyrimidin-4-yl)amino)-1-methyl-2-oxo-1,2-dihydro-1,8-naphthyridin-3-yl)oxy)-N-methylacetamide], the “Ymin (5 hr)” value was “++ (50% ≤ Ymin < 70%)” and the DC50 lay within 0.01 to 0.1 µM.

Turning to `CNC(=O)COc1cc2cc(Nc3nc(N4CC[C@@H](CNc5cccc6c(C7CCC(=O)NC7=O)nn(C)c56)C4)ncc3Cl)cnc2n(C)c1=O` (stereo partly drawn) [Compound 122b, 2-((6-((5-chloro-2-((3S)-3-(((3-(2,6-dioxopiperidin-3-yl)-1-methyl-1H-indazol-7-yl)amino)methyl)pyrrolidin-1-yl)pyrimidin-4-yl)amino)-1-methyl-2-oxo-1,2-dihydro-1,8-naphthyridin-3-yl)oxy)-N-methylacetamide], the “Ymin (5 hr)” value was “+++ (30% ≤ Ymin < 50%)” and the DC50 fell in the range of 0.01 to 0.1 µM.
